Target: T1, recombinant human 11 β-HSD1 (Homo sapiens, UniProt P28845)
T1 construct: made in house; host or cells: E. coli
Assay: 11 β-HSD1 SPA Assay (Scintillation Proximity Assay)
Assay type: biochemical
Method: (§1) Inhibition of 11 βHSD1 by test compounds was assessed in vitro by a Scintillation Proximity Assay (SPA). The assay was carried out in a 384-well assay plate in a total well volume of 26 μl and contained a mixture of tritiated cortisone substrate (40 nM), NADPH cofactor (1 mM), inhibitor in serial dilutions ([…] to 10 μM), and purified E. coli-expressed recombinant human 11 βHSD1 (30-100 nM) in assay buffer (50 mM HEPES, 100 mM KCl, 5 mM NaCl, and 2 mM MgCl2, pH7.4). Following mixing, the plate was incubated for 2 hours at room temperature. Reactions were stopped by addition of 30 μl of protein A YSi SPA beads (10 mg/ml) that had been pre-incubated with glycyrrhetinic acid (1 mM) and a monoclonal cortisol antibody (3 μg/ml). The plate was then incubated overnight at room temperature prior to reading on a Microbeta counter. Percent inhibition of each compound was calculated based on the background and the maximal signals. Wells that contained substrate without compound or enzyme were used as the background signal, while the wells that contained substrate and enzyme without any compound were used as the maximal signal. The calculation of the IC50 values for the inhibitors was performed by Activity Base.
as §1, with “β-HSD1” for “βHSD1”

T1 sequence (P28845 whole entry): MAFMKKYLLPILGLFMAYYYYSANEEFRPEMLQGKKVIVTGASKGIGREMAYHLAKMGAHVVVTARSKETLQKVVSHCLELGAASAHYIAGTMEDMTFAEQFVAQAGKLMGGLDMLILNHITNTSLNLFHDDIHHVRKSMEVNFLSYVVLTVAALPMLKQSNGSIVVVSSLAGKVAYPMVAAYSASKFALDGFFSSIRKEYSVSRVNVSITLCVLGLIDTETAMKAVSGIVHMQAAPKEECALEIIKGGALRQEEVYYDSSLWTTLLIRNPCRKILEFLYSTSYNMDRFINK

Compound | IC50 [nM]
CC(C)(Oc1ccc(F)cc1Cl)C(=O)N[C@H]1C[C@H]2CC[C@@H](C1)N2c1ccc(C(=O)NC2CC2)cn1 [Example 265, 6-[3-endo-({2-[(2-chloro-4-fluorophenyl)oxy]-2-methylpropanoyl}amino)-8-azabicyclo[3.2.1]oct-8-yl]-N-cyclopropylpyridine-3-carboxamide] | < 200
C[C@@H](NC(=O)c1ccc(N2C3CCC2CC(NC(=O)C(C)(C)Oc2cc(F)c(F)cc2Cl)C3)nc1)C(F)(F)F (stereo partly drawn) [Example 451, 6-(3-endo-{[2-(2-chloro-4,5-difluorophenoxy)-2-methylpropanoyl]amino}-8-azabicyclo[3.2.1]oct-8-yl)-N-[(2R)-1,1,1-trifluoropropan-2-yl]pyridine-3-carboxamide] | < 200
C[C@@H](CO)NC(=O)c1ccc(N2C3CCC2CC(NC(=O)C(C)(C)Oc2ccc(Cl)cc2Cl)C3)nc1 (stereo partly drawn) [Example 397, 6-(3-endo-{[2-(2,4-dichlorophenoxy)-2-methylpropanoyl]amino}-8-azabicyclo[3.2.1]oct-8-yl)-N-[(2S)-1-hydroxypropan-2-yl]pyridine-3-carboxamide] | < 200
CC(C)(Oc1ccc(F)cc1Cl)C(=O)N[C@H]1C[C@H]2CC[C@@H](C1)N2c1ccc(-c2noc(C(F)(F)F)n2)cn1 [Example 276, 2-[(2-chloro-4-fluorophenyl)oxy]-2-methyl-N-(8-{5-[5-(trifluoromethyl)-1,2,4-oxadiazol-3-yl]pyridin-2-yl}-8-azabicyclo[3.2.1]oct-3-endo-yl)propanamide] | < 2000
CC(C)(Oc1ccc(Cl)cc1C(F)(F)F)C(=O)NC1CC2CCC(C1)N2c1ccc(C(=O)NC2CC2(F)F)cn1 (stereo not drawn) [Example 345, 6-[3-endo-({2-[4-chloro-2-(trifluoromethyl)phenoxy]-2-methylpropanoyl}amino)-8-azabicyclo[3.2.1]oct-8-yl]-N-(2,2-difluorocyclopropyl)pyridine-3-carboxamide] | < 200
CC(C)(C(=O)N[C@H]1C[C@H]2CC[C@@H](C1)N2c1ccc(C(=O)NCC(F)(F)F)cn1)c1ccc(Cl)cc1 [Example 26, 6-(3-endo-{[2-(4-chlorophenyl)-2-methylpropanoyl]amino}-8-azabicyclo[3.2.1]oct-8-yl)-N-(2,2,2-trifluoroethyl)pyridine-3-carboxamide] | < 200
CC(C)(Oc1ccccc1C(F)(F)F)C(=O)N[C@H]1C[C@H]2CC[C@@H](C1)N2c1ccc(S(N)(=O)=O)cn1 [Example 256, N-{8-[5-(aminosulfonyl)pyridin-2-yl]-8-azabicyclo[3.2.1]oct-3-endo-yl}-2-methyl-2-{[2-(trifluoromethyl)phenyl]oxy}propanamide] | < 200
CC(C)(Oc1cc(C(C)(C)O)c(F)cc1Cl)C(=O)N[C@H]1C[C@H]2CC[C@@H](C1)N2c1ccc(C(=O)NCC(F)F)cn1 [Example 472, 6-[3-endo-({2-[2-chloro-4-fluoro-5-(2-hydroxypropan-2-yl)phenoxy]-2-methylpropanoyl}amino)-8-azabicyclo[3.2.1]oct-8-yl]-N-(2,2-difluoroethyl)pyridine-3-carboxamide] | < 200
CC(=O)c1ccc(N2[C@@H]3CC[C@H]2C[C@@H](NC(=O)C(C)(C)Oc2ccc(Cl)cc2Cl)C3)nc1 [Example 87, N-[8-(5-acetylpyridin-2-yl)-8-azabicyclo[3.2.1]oct-3-endo-yl]-2-[(2,4-dichlorophenyl)oxy]-2-methylpropanamide] | < 200
CC(C)NC(=O)c1ccc(N2[C@@H]3CC[C@H]2C[C@@H](NC(=O)C(C)(C)Oc2cc(C(C)(C)O)c(Cl)cc2Cl)C3)nc1 [Example 477, 6-[3-endo-({2-[2,4-dichloro-5-(2-hydroxypropan-2-yl)phenoxy]-2-methylpropanoyl}amino)-8-azabicyclo[3.2.1]oct-8-yl]-N-(propan-2-yl)pyridine-3-carboxamide] | < 200
CC(C)(C(=O)N[C@H]1C[C@H]2CC[C@@H](C1)N2c1ccc(C(=O)NC2CC2)cn1)c1ccccc1Cl [Example 34, 6-(3-endo-{[2-(2-chlorophenyl)-2-methylpropanoyl]amino}-8-azabicyclo[3.2.1]oct-8-yl)-N-cyclopropylpyridine-3-carboxamide] | < 200

Reference: patent publication US8163771B2, “11 β-HSD1 modulators” (Exelixis, Inc., priority 2008, dated 2012)
